The values that follow come from article PMC8815074, “Development of ^11C-Labeled ASEM Analogues for the Detection of Neuronal Nicotinic Acetylcholine Receptors (α7-nAChR)” (ACS Chemical Neuroscience, 2022).

SMILES strings stand for the structures.

The experiment deals with T1, α7-nAChR (Rattus norvegicus, UniProt Q05941).
T1 construct: gene Chrna7; native receptor in rat brain sections
Kind of experiment: radioligand autoradiography ([…] and 3H, […]) with blocking by ASEM and unlabeled KIn-83. The note with it: read-out: % of total binding displaced at 10 uM.

T1 sequence (Q05941 23-502): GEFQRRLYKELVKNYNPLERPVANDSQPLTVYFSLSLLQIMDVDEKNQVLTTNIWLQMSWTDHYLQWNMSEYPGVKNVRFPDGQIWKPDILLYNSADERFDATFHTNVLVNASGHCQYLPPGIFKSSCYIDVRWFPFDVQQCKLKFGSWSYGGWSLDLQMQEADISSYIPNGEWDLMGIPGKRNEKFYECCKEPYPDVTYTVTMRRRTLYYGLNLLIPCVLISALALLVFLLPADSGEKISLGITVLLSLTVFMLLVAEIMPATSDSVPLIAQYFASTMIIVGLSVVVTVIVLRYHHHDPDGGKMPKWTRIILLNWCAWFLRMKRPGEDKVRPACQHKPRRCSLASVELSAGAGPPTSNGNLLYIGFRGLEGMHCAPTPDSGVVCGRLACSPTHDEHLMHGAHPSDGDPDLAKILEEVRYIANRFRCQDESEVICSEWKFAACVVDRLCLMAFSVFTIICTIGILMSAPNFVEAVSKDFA

Turning to `COc1cccc2c1S(=O)(=O)c1cc(N3CCN4CCC3CC4)ccc1-2` [KIn-83], the inhibition at 10 µM amounted to 80%.
